Reference: publication PMC3026800, “Mechanism of Inhibition of Enveloped Virus Membrane Fusion by the Antiviral Drug Arbidol” (PLoS ONE, 2011)
Values joined by “and” are separate entries in the source; they are usually repeats but may differ in a detail not shown here. Identical values can stand only once. Like-named read-outs stand apart in the source and are kept apart here.

Columns and labels:
[1] = Surface plasmon resonance binding to immobilized DMPC liposomes (L1 chip)
Method: The running buffer was milliQ water. The influence of liposome concentrations on the final SPR signal was tested; we assayed lipid concentrations from 0.5 to 5 mM and measured the resulting resonance units (RU). […] We therefore chose the 2 mM concentration for our experiments. DMPC liposomes were resuspended in milliQ water and captured on sensor chip at 2 µl/min for 5 min. The flow rate was increased to 30 µl/min and the liposome surface was then washed with 10 mM NaOH for 1 min. Liposomes immobilized on the chip surface gave approx. a 5000 RU signal. […] After each binding cycle, the sensor surface was regenerated to the original matrix by injecting 50 mM NaOH/isopropanol (6∶4, v∶v). The sensor surface was then coated with a fresh liposome suspension for the next binding cycle. KD values were calculated from the equilibrium resonance signal (Req) as a function of the analyte concentration. Req values were estimated by extrapolation to infinite time using plots of resonance signal as a function of the reciprocal of time. Apparent KD were then calculated by nonlinear fitting to the expression Req = RmaxC/(KD+C), where Rmax is the maximum binding capacity of the surface and C is the analyte concentration, using the SigmaPlot software.

[2] = tested on: HCVpp; experiment: microbe, parasite or virus in culture; format: cell-based, hepatitis C virus; details: for inhibition at 11.3 µM: Hepatitis C virus, Huh-7, 6 h, read-out: Inhibition of HCVpp cell entry; for Effect on HCVpp cell entry: 11.3 µM Arb, 6 h, Huh-7 cells
[3] = tested on: Rd114pp (envelope glycoprotein of the RD114 feline oncovirus); format: cell-based; details: 11.3 µM arbidol; control pseudoparticles
[4] = target: T1, HCV NS4A[1–22]* transmembrane peptide (Hepatitis C virus genotype 1a, UniProt P27958); experiment: Trp fluorescence quenching of peptide in PC:chol liposomes; format: binding; details: peptide in PC∶chol liposomes (1∶20)
T1 construct: HCV NS4A[1–22]* transmembrane peptide […]
Method: (§1) Measurements were recorded on a Tecan Infinite® M1000 spectrofluorimeter.

[5] = tested on: HCVpp; experiment: Membrane fusion assay: lipid mixing between pseudoparticles and R18-labeled liposomes; details: pH 5.0
Method: Lipid mixing between pseudoparticles and PC∶chol∶R18 liposomes was monitored by fluorescent spectroscopy, as the dequenching of R18 [18]. In brief, R18-labeled liposomes (1 µl, 12.5 µM final lipid concentration) were added to a 37°C-thermostated cuvette containing pseudoparticles in PBS pH 7.4 [viral titers: H77 (1a) 5.10e^5; W529A-HC 10e^2; Con1 (1b) 4.10e^4; JFH1 (2a) 5.10e^4; AY734983 (2b) 8.10e^4; AY734984 (3a) 3.10e^4; AY734987 (4a) 9.10e^4; AY785283 (5a) 3.10e^4; AY736194 (6a) 5.10e^3; HA 8.10e^8; Rd114 2.10e^6], and incubated 2 min. Fusion was initiated by acidification to pH 5 with HCl, and recorded on an SLM Aminco 8000 spectrofluorimeter over a 10-min time period, at excitation and emission wavelengths of 560 nm and 590 nm, respectively. Maximal R18 dequenching was measured after the addition of 0.1% Triton X-100 (final concentration) to the cuvette to lyse liposomes.

[6] = Indole fluorescence quenching of tryptophan derivative in solution; format: binding; details: NATA in solution
Method: as §1

[7] = Solubility of Arb; format: physicochemical
[8] = target: E2[415–432] peptide (Hepatitis C virus genotype 1a, UniProt P27958); experiment: Trp fluorescence quenching of fusion-related peptide in PC:chol liposomes; format: binding, HCV strain H (genotype 1a); details: peptide in PC∶chol liposomes (1∶20)
Method: as §1

[9] = target: E2[606–625] peptide (Hepatitis C virus genotype 1a, UniProt P27958); experiment: as above; format: binding, HCV strain H (genotype 1a); details: peptide in PC∶chol liposomes (1∶20)
Method: as §1

[10] = cited from earlier work
[11] = Indole fluorescence quenching of tryptophan derivative in micelles or liposomes; format: binding
Method: as §1

[12] = Free Arb in Arb∶DMPC mixture by ultrafiltration; format: physicochemical; details: Arb∶DMPC molar ratio 1∶4, neutral pH, ultrafiltration cutoff 5000 Da
[13] = target: Trp residues of model membrane-binding peptides (HCV NS4A and BVDV NS5A); experiment: Trp fluorescence quenching, model membrane peptides taken together; details: HCV NS4A and BVDV NS5A peptides in PC∶chol liposomes, both pH, summary; read-out: Apparent KD toward peptide Trp
Method: as §1

Q: What does the source list for `CCOC(=O)c1c(CSc2ccccc2)n(C)c2cc(Br)c(O)c(CN(C)C)c12.Cl` [Arb, 1H-indole-3-carboxylic acid, 6-bromo-4-[(dimethylamino)-methyl]-5-hydroxy-1-methyl-2-[(phenylthio)methyl]-, ethyl ester, monohydrochloride]?
A: Arb remaining bound to DMPC after dissociation ([1]; all Arb concentrations tested (0.5 to 11.3 µM)): about 50%; Kd ([1]; read-out: Apparent KD for DMPC, SPR, 30°C, water, Req extrapolated to infinite time, 4 separate experiments): 6.8 ± 0.4 µM; inhibition at 11.3 µM ([2]; genotype 1a): 40%; inhibition at 11.3 µM ([2]; genotype 1b): 40%; inhibition at 11.3 µM ([2]; genotype 2a): ~60%; inhibition at 11.3 µM ([2]; genotype 2b): 40%; inhibition at 11.3 µM ([2]; genotype 3a): ~60%; Effect on HCVpp cell entry ([2]; genotype 5a): weakly affected; Effect on HCVpp cell entry ([2]; genotype 6a): weakly affected; Sensitivity of pseudoparticle entry to arbidol [3]: insensitive; Kd ([4]; pH 5.0): 5.6 ± 0.3 µM; Kd ([4]; pH 7.4): 3.3 ± 0.6 µM; Inhibition of membrane fusion activity ([5]; all tested genotypes, 11.3 µM Arb): about 50%; IC50 ([5]; read-out: IC50 of HCVpp fusion, lipid mixing with R18 liposomes): 11.3 µM and ~10 µM; Kd ([6]; pH 5.0): 55 ± 10 µM; Kd ([6]; pH 7.4): 64 ± 10 µM; Solubility ([7]; ethanol): readily soluble; Solubility ([7]; water): soluble in the mM range; Kd ([8]; pH 5.0): 28 ± 7 µM; Kd ([8]; pH 7.4): ~15 µM and 15 µM; Kd ([9]; pH 5.0): 70 ± 10 µM; Kd ([9]; pH 7.4): 13 ± 3 µM; Toxicity [10]: low toxicity; Kd ([11]; TOE associated to liposomes (1∶20), summary, read-out: KD (apparent affinity)): ~10 µM; Kd ([11]; TOE in PC liposomes (1∶20), pH 5.0, read-out: KD): 9.2 ± 0.2 µM; Kd ([11]; TOE in PC liposomes (1∶20), pH 7.4, read-out: KD): 6 ± 0.5 µM; Kd ([11]; TOE in PC∶chol liposomes (1∶20), pH 5.0, read-out: KD): 15.6 ± 1.3 µM; Kd ([11]; TOE in PC∶chol liposomes (1∶20), pH 7.4, read-out: KD): 11.7 ± 1.4 µM; Kd ([11]; TOE in lyso-PC micelles (1∶800), pH 5.0, read-out: KD): 48 ± 4 µM; Kd ([11]; TOE in lyso-PC micelles (1∶800), pH 7.4, read-out: KD): 58 ± 9 µM; Free Arb [12]: < 0.2%; Kd [13]: ~4 µM
